# Values quoted from earlier work as cited in patent US20220409679A1, “COMPOSITIONS AND METHODS WITH A PROBIOTIC AND A NUTRIENT AND/OR MINERAL FOR THE PREVENTION OR TREATMENT OF MASTITIS” (SOCIETE DES PRODUITS NESTLE S.A., priority 2019, published 2022).
# Columns and labels:
# [1] = system: mastitis in cows; details: O'Rourke 2009; for symptoms associated with mastitis: supplementation
# [2] = O'Rourke 2009
SMILES,immune system [1],symptoms associated with mastitis [1],antibacterial activity in milk [2]
[Cu] [copper],enhance the immune system,reduce mastitis symptoms in cows,–
[Se] [selenium],–,improves symptoms associated with mastitis in cows,improves antibacterial activity in milk
[Zn] [zinc],enhance the immune system,reduce mastitis symptoms in cows,–
